Test results: PMC10206040, “Identification of novel anti-amoebic pharmacophores from kinase inhibitor chemotypes” (Frontiers in Microbiology, 2023)
Like-named read-outs stand apart in the source and are kept apart here.

How the values were obtained:
[1] = test system: Balamuthia mandrillaris (CDC:V039; ATCC 50209) trophozoites; assay: CellTiter-Glo 2.0 trophocidal assay, B. mandrillaris; type: cell-based; conditions: Balamuthia mandrillaris, ATCC50209, 72 h, read-out: Balamuthia mandrillaris EC50 ± SD
Source text: For sub-culturing, 0.25% Trypsin–EDTA (Gibco) cell detachment reagent was used to detach the cells from the culture flasks.

[2] = Human fetal lung fibroblast (MRC5) cell cytotoxicity assay (resazurin); conditions: human, MRC5 cells (human fetal lung fibroblasts)
Method: (§1) Intermediate plates were made as described, adding 95 μL of DMEM complete media to 5 μL of compound per well setting a 5% DMSO amount. Log-phase MRC5 cells were removed from a T-75 TC flask using TrypLE® Express (Thermo®) and dispersed by gentle pipetting. Cell density was adjusted to working concentration in prewarmed DMEM medium: 25,000 cells in 90 μL of culture were plated in 96-well transparent Nunclon plates and allowed to settle for 24 h at 37°C and 5% CO2. […] Plates were incubated for 48 h at 37°C and 5% CO2. At 4 h prior to fluorescence measurement, 20 μL of 500 μM resazurin solution was added.
(§2) A four-parameter equation was used to fit the dose–response curves and determination of EC50 by SigmaPlot ® 13.0 software. Assays were performed in duplicate at least twice for positive compounds, to achieve a minimal […] per dose response.

[3] = test system: Naegleria fowleri (ATCC 30215) trophozoites; assay: microbe, parasite or virus in culture
Method: Trophozoites were routinely grown axenically at 34°C, 5% CO2, in Nelson’s complete medium (NCM) in non-vented 75 cm^2 tissue culture flasks (Olympus), until the cells were 80–90% confluent. For sub-culturing, cells were placed on ice to detach the cells from the culture flasks. […] Complete NCM media is prepared by the addition of 10% fetal bovine serum (FBS) and 100 U/mL penicillin, and 100 μg/mL streptomycin antibiotics.
Trophozoites were routinely cultured as described above and only logarithmic trophozoites were used.
All assays were incubated at each of the parasites’ representative growth temperatures, described above, for 72 h. At the 72-h time point, 25 μL of CellTiter-Glo 2.0 reagent was added to all wells of the 96-well plates by hand. The plates were protected from light and contents were mixed using an orbital shaker at 300 rpm at room temperature for 2 min to induce cell lysis. After shaking, the plates were equilibrated at room temperature for 10 min to stabilize the luminescent signal. The ATP luminescent signal (relative light units; RLUs) were measured […] with a SpectraMax I3X plate reader (Molecular Devices, Sunnyvale, CA, United States). […] Values reported are from a minimum of three biological replicates with standard deviation.

[4] = test system: Acanthamoeba castellanii T4 isolate (ATCC 50370) trophozoites; assay: CellTiter-Glo 2.0 trophocidal assay, A. castellanii; type: cell-based; conditions: logarithmic trophozoites, 72 h, n = 3, read-out: Acanthamoeba castellanii EC50 ± SD
Source text: This isolate was purchased from American Type Culture Collection (ATCC). […] For sub-culturing, cells were mechanically harvested to detach the cells from the culture flasks.

MRC5 cells = assay: Human fetal lung fibroblast (MRC5) cell cytotoxicity assay (resazurin); conditions: Table S2
Method: as §1, §2

[5] = Naegleria fowleri, 72 h, read-out: Naegleria fowleri EC50 ± SD, logarithmic trophozoites, 72 h, n = 3 (converted)
[6] = Acanthamoeba castellanii, ATCC50370, 72 h
[7] = Naegleria fowleri, ATCC30215, 72 h, read-out: Naegleria fowleri EC50 ± SD, logarithmic trophozoites, 72 h, n = 3 (converted)

| SMILES | CC50 at 48 h [2] [µM] | EC50 [3, 7] [µM] | MRC5 TC50 ± Standard Deviation (MRC5 cells) [µM] | further results |
| --- | --- | --- | --- | --- |
| COc1cccc(Nc2nccc(-c3cnn4ccccc34)n2)c1 [Compound 2h] | > 50 |  |  | EC50 [1]: 3.3 ± 0.97 µM |
| COc1ccc(-c2nn3ncccc3c2-c2ccnc(Nc3ccccc3)n2)cc1 [Compound 2i] | > 50 |  |  | EC50 [3, 5]: 17 ± 3.5 µM |
| COc1cccc(Nc2nccc(-c3cnn4nc(N5CCOCC5)ccc34)n2)c1 [Compound 2j] | > 50 |  |  | EC50 [1]: 4.9 ± 1.6 µM |
| COCc1nn2ncccc2c1-c1ccnc(Nc2cccc(C#N)c2)n1 [Compound 2l] | > 50 |  |  | EC50 ([3]; read-out: Naegleria fowleri EC50 ± SD, logarithmic trophozoites, 72 h, n = 3): ≤ 14 µM; EC50 ([3]; read-out: Naegleria fowleri EC50 ± SD, logarithmic trophozoites, 72 h, n = 3, listed as 2 l): 1.1 ± 0.16 µM |
| CC(O)c1nn2ncccc2c1-c1ccnc(Nc2cccc(C#N)c2)n1 (stereo not drawn) [Compound 2m] | > 50 |  |  | EC50 [3, 5]: 17 ± 0.76 µM |
| CC(C)c1nn2ncccc2c1-c1ccnc(Nc2cccc(C#N)c2)n1 [Compound 2n] | 33 ± 2 |  |  | EC50 [3, 5]: 1.3 ± 0.33 µM |
| N#Cc1cccc(Nc2nccc(-c3c(C4CC4)nn4ncccc34)n2)c1 [Compound 2o] | > 50 |  |  | EC50 [3, 5]: 9.6 ± 6.6 µM |
| COc1ccc2c(-c3ccnc(NC4CCC(O)CC4)n3)cnn2n1 (stereo not drawn) [Compound 2s] | > 50 |  |  | EC50 [1]: 11 ± 4.2 µM |
| c1ccc(Nc2nccc(-c3cnn4ncccc34)n2)nc1 [Compound 2t] | > 50 |  |  | EC50 [1]: 10 ± 2.8 µM |
| Nc1c(-c2ccccn2)nc2cc(F)ccn12 [Compound 3a, 7-Fluoro-2-(pyridin-2-yl)imidazo[1,2-a]pyridin-3-amine] |  | 15 ± 4.7 | 64 | EC50 [4, 6]: < 10 µM; EC50 [4]: 6.94 ± 0.11 µM |
| COc1ccn2c(Nc3ccccc3F)c(-c3cnn(C)c3)nc2c1 [Compound 3b, N-(2-Fluorophenyl)-7-methoxy-2-(1-methyl-1H-pyrazol-4-yl)imidazo[1,2-a]pyridin-3-amine] |  | 13 ± 6.7 | 64 |  |
| COc1ccn2c(Nc3ccccc3F)c(-c3cccc(C)n3)nc2c1 [Compound 3c, N-(2-Fluorophenyl)-7-methoxy-2-(6-methylpyridin-2-yl)imidazo[1,2-a]pyridin-3-amine] |  | > 20 | 64 | EC50 [4, 6]: > 20 µM |
| Fc1ccn2c(NC3CC3)c(-c3ccccn3)nc2c1 [Compound 3d, N-Cyclopropyl-7-fluoro-2-(pyridin-2-yl)imidazo[1,2-a]pyridin-3-amine] |  | > 20 | 64 | EC50 [4, 6]: > 20 µM |
| CC(C)Nc1c(-c2ccccn2)nc2cc(C(F)(F)F)ccn12 [Compound 3f, N-(Propan-2-yl)-2-(pyridin-2-yl)-7-(trifluoromethyl)imidazo[1,2-a]pyridin-3-amine] |  | > 20 | 53 |  |
| COc1ccn2c(Nc3ccccc3F)c(-c3cccnc3)nc2c1 [Compound 3g, N-(2-fluorophenyl)-7-methoxy-2-(pyridin-3-yl)imidazo[1,2-a]pyridin-3-amine] |  | > 20 | 64 |  |
| COc1ccn2c(NC(=O)c3ccccc3F)c(-c3ccccn3)nc2c1 [Compound 3h, 2-Fluoro-N-[7-methoxy-2-(pyridin-2-yl)imidazo[1,2-a]pyridin-3-yl]benzamide] |  | > 20 | 64 |  |
| COc1ccn2c(Nc3ccccc3F)c(-c3ncccn3)nc2c1 [Compound 3i, N-(2-Fluorophenyl)-7-methoxy-2-(pyrimidin-2-yl)imidazo[1,2-a]pyridin-3-amine] |  | > 20 | 49 |  |
| COc1ccn2c(Nc3ccccc3F)c(-c3ccncn3)nc2c1 [Compound 3j] |  | > 20 | 46 |  |
| COc1ccn2c(NC(=O)c3ccc(F)cn3)c(-c3ccccn3)nc2c1 [Compound 3k, 5-Fluoro-N-[7-methoxy-2-(pyridin-2-yl)imidazo[1,2-a]pyridin-3-yl]pyridine-2-carboxamide] |  | > 20 | 64 |  |
| COc1ccn2c(NC(=O)c3cccc(F)c3)c(-c3ccccn3)nc2c1 [Compound 3l, 3-Fluoro-N-[7-methoxy-2-(pyridin-2-yl)imidazo[1,2-a]pyridin-3-yl]benzamide] |  | > 20 | 59 |  |
